The conditions of data set [1]: after MZ1 administration, FIG. 23.
For another data set, the target named is T1, endogenous BRD4 (Mus musculus, UniProt Q9ESU6).
T1 construct: Immunoblot analysis of endogenous long isoform BRD4 (BRD4L) after 50 mg/kg MZ1 treatment i.p; from tissue; host or cells: liver of FVB mice (AAV-infected, MZ1-treated)
Kind of data set: Immunoblot of endogenous BRD4 in mice liver tissue. Type of data set: in vivo, FVB mice. Conditions: 50 mg/kg MZ1 i.p., FIG. 21. From the text: Immunoblots and RT-qPCR. Mice liver tissues or culture cells were lysed in RIPA buffer (Abcam no. ab156034) supplemented with phosphatase inhibitor (Thermo Fisher Scientific no. PIA32957) and protease inhibitors (Fishers cientific no. A32965). Lysates were resolved by 10% Tris-glycine SDS-PAGE, transferred to PVDF membrane (Bio-Rad no. 1620177), and blotted with antibodies BRD4 (Abcam, ab128874), GAPDH (Cell Signaling Technology, 2118L), luciferase (ABclonal, requested), Ran (ABclonal, A0976), Hsp90 (Cell Signaling Technology, 4874). Images were acquired using LumiQuant AC600 (Acuronbio Technology Inc), quantification analysis was processed by ImageJ software. Trizol reagent (Sigma no. T9424) was used to extract total RNA from liver. RNAs were purified using RNeasy Mini kit (QIAGEN no. 4106). The quality and concentration of total RNA were checked on NanoDrop™ 2000/2000c Spectrophotometers (Thermo Fisher Scientific no. ND2000LAPTOP). Reverse transcription of total RNA was performed using a Applied Biosystems™ High-Capacity cDNA Reverse Transcription Kit (Thermo Fisher Scientific no. 4368813) and qPCR was conducted with SYBR Green Master Mix (Abclonal no. RK21203) on QuantStudio 6 Real-time PCR system (Thermo Fisher Scientific).
(§1) AAV production and Mouse for in vivo delivery. […] FVB mice were purchased from the Jackson Laboratory.
(In general: In western blotting, separated proteins are transferred to a membrane and probed.)

Data set [2] has as its system luciferase expression in the liver of FVB mice injected with Virus a and Virus b. Kind of data set: In vivo PROTAC-CID gene activation via AAV, IVIS bioluminescence imaging. The procedure:
as §1
IVIS imaging system and quantification. Luciferase […] intensity was measured by the IVIS imaging system (PerkinElmer). Mice were anesthetized with a mixture of isoflurane and oxygen. and then intraperitoneally (i.p.) injected with D-luciferin (15 mg/ml, GoldBio no. LUCNA-100). 5 mins after the D-luciferin injection, mice were imaged with IVIS imaging system. Quantitative analysis of imaging signals (luminescence counts) was processed by Living Imaging software (PerkinElmer).

Consider `Cc1ncsc1-c1ccc(CNC(=O)[C@@H]2C[C@@H](O)CN2C(=O)[C@@H](NC(=O)COCCOCCOCCNC(=O)C[C@@H]2N=C(c3ccc(Cl)cc3)c3c(sc(C)c3C)-n3c(C)nnc32)C(C)(C)C)cc1` [MZ1], for which the “abnormality or body weight change” value in data set [1] is given as “no abnormality or body weight change”. Besides, the “expression of BRD4 in mice liver tissue” value on endogenous BRD4 was “did not observe a significant change in the expression of BRD4”. In data set [2] (10 mg/kg MZ1 intraperitoneally, 25 days after AAV, imaging 6 h post-MZ1, FIG. 4E), the “increase of the luciferase expression in the liver compared with the group without MZ1” value is roughly 7 fold. In data set [2] (second injection ten days after the first, 50 mg/kg i.p., FIGS. 4G and 4H), the “Fluc expression after second MZ1 injection” value is recorded as “elevated expression of Fluc with a comparable gene activation level as the first administration”.

For the origin of these results see patent US20250382631A1, “PROTAC-CID SYSTEMS FOR USE IN MULTIPLEX GENE REGULATION” (William Marsh Rice University, priority 2022, published 2025).
